Test results from patent US20260256923A1, “NEW RECRUITMENT ELEMENT OF UBIQUITIN LIGASE AND USE THEREOF” (SHENZHEN LINGGENE BIOTECH CO., LTD., priority 2023, published 2026).

Columns and labels:
[1] = test system: metastatic castration-resistant prostate cancer; details: patients carrying AR T878X and/or H875Y mutations; cited from earlier work
STAT3 [2] = target: T1, STAT3 (Homo sapiens, UniProt P40763); experiment: STAT3 protein degradation in HOS osteosarcoma cells, western blot; format: cell-based; parameters: endogenous in cells; details: 500 nM, 6 h
Protocol: HOS osteosarcoma cells were incubated with 500 nM double-stranded transcription factor decoy oligonucleotide S3, AS1411, the first PROTAC product 1411-S3-1, the second PROTAC product 1411-S3-2, or AS1411+double-stranded transcription factor decoy oligonucleotide S3. After 6 h, cell samples were collected for protein extraction and subsequent western blot assay.

STAT3 [3] = target: T1, STAT3; experiment: STAT3 protein degradation in HeLa cells, western blot; format: cell-based; parameters: endogenous in cells; host or cells: HeLa; details: 500 nM, 6 h
Protocol: HeLa cells were incubated with 500 nM said first PROTAC product 1411-S3-1 or second PROTAC product 1411-S3-2, and corresponding cell samples were collected at time gradients of 0 h, 2 h, 6 h, 12 h, 18 h, and 24 h for protein extraction and subsequent western blot assay.
HeLa cells were incubated with the first PROTAC product 1411-S3-1 or the second PROTAC product 1411-S3-2 at concentrations of 0 nM, 100 nM, 200 nM, 500 nM, and 1000 nM. After 6 h, cell samples were collected for protein extraction and subsequent western blot assay. […] The half-maximal degradation concentrations (DC50) of the first PROTAC product 1411-S3-1 and the second PROTAC product 1411-S3-2 against STAT3 at the protein level were 262.5 nM and 136.3 nM, respectively, as shown in FIG. 19.
HeLa cells were incubated with 500 nM double-stranded transcription factor decoy oligonucleotide S3, AS1411, the first PROTAC product 1411-S3-1, the second PROTAC product 1411-S3-2, or AS1411+double-stranded transcription factor decoy oligonucleotide S3. After 6 h, cell samples were collected for protein extraction and subsequent western blot assay.
HeLa cells were incubated with 500 nM said first PROTAC product 1411-S3-1 or second PROTAC product 1411-S3-2, and proteasome inhibitor MG132 was added. After 6 h, cell samples were collected for protein extraction and subsequent western blot assay. […]

T1 sequence (P40763 whole entry): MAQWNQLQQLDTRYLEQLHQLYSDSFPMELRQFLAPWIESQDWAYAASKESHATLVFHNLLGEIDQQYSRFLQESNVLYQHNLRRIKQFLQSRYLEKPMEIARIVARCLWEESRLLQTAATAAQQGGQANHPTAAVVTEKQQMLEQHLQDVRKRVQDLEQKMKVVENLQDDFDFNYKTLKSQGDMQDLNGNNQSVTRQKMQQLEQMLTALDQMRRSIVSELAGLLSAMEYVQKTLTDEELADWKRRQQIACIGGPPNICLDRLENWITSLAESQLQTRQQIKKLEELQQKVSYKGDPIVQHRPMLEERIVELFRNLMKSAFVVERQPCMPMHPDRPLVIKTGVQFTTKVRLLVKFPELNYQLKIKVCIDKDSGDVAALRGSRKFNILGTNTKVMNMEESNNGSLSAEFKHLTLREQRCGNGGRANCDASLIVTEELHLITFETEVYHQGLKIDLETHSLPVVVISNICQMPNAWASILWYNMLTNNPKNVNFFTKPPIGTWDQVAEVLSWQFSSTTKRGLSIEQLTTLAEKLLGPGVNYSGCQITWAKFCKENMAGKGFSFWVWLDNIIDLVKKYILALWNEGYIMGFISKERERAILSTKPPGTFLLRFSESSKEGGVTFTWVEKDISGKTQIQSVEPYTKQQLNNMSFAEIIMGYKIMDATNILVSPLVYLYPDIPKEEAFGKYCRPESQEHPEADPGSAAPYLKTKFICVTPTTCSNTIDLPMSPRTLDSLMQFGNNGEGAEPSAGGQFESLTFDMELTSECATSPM

Row | Compound | antitumor activity and clinical benefit [1] | protein level of STAT3 (STAT3 [2]) | protein level of STAT3 (STAT3 [3])
1 | N#Cc1ccc(O[C@H]2CC[C@H](NC(=O)c3ccc(N4CCC(CN5CCN(c6cc7c(cc6F)C(=O)N(C6CCC(=O)NC6=O)C7=O)CC5)CC4)nn3)CC2)cc1Cl (stereo partly drawn) [ARV-110, Bavdegalutamide] | exhibits potent antitumor activity and clinical benefit | – | –
2 | S3: double-stranded transcription factor decoy oligonucleotide that specifically recognizes STAT3; strands SEQ ID NO: 5 and 6 (chain 1 CTTCTGGGAAA; chain 2 TTTCCCAGAAG; DNA, backbone and methylation of C not given here; double-stranded decoy) | – | only the first PROTAC product 1411-S3-1 and the second PROTAC product 1411-S3-2 can reduce the protein level of transcription factor STAT3 | only the first PROTAC product 1411-S3-1 and the second PROTAC product 1411-S3-2 can reduce the protein level of transcription factor STAT3
